Data reported in patent publication US20160199371A1, “PHARMACEUTICAL COMPOSITION HAVING PYRIMIDINE COMPOUND AS ACTIVE INGREDIENT” (ASTELLAS PHARMA INC, priority 2013, published 2016).

Legend:
[1] = tested on: FGF19 gene amplification-positive liver cancer cell (HuH-7); experiment: Antitumor test using mouse model subcutaneously transplanted with HuH-7 cells; assay type: in vivo, nude mice; conditions: 1 mg/kg/day oral once daily
Protocol: HuH-7 cells at 3×10^6 cells/0.1 mL (solution suspended in PBS and Matrigel at 1:1) was subcutaneously transplanted to nude mice (CanN.Cg-Foxn1 nu/CrlCrlj(nu/nu): Charles River Laboratories Japan, Inc., male, 4-5 week old). After about 3 weeks after the transplantation, the mice were grouped according to the tumor volumes and body weights. […] The test compound was made into a suspension using a 0.5% aqueous methyl cellulose solution and orally administered once a day daily. […] For the tumor volume, a short diameter and long diameter were measured using a calipers, and the tumor volume was calculated by (tumor volume mm^3)=(short diameter mm×short diameter mm×long diameter mm)/2. […] The tumor growth inhibitory rate of test compound was calculated by <the tumor growth inhibitory rate (%)>=<1−(increase in the tumor volume of the test compound-administered group/increase in the tumor volumes of the control group)>×100. The increase in the tumor volume was calculated by (increase in the tumor volume)=(the tumor volume on the final day of each group)−(the tumor volume on the 0th day of each group).

[2] = tested on: HuH-7 cell; experiment: Growth assay of FGF19 gene amplification-positive liver cancer cell (HuH-7); assay type: cell-based; conditions: Homo sapiens, Huh-7, 120 h; test compound 37 nM, 5 days; read-out: HuH-7 Cell Growth Inhibitory Rate
Protocol: After 5 days from the addition of the test compound solution, the number of HuH-7 cells were measured with ARVO×3 (Perkin Elmer) using a CellTiter-Glo Luminescent Cell Viability Assay (Promega). […] That is, the inhibitory rate was calculated by <the growth inhibitory rate (%)>=<1−(the measured value of the well to which the test compound was added>−<the measured value of the well to which the cells were not added (only medium present)>)/{<the measured value of the well to which the test compound was not added (only DMSO was added)>−<the measured value of the well to which the cells were not added (only medium present)}]×100.

[3] = target: T1, human recombinant FGFR4 (Homo sapiens, UniProt P22455); experiment: FGFR4 enzyme assay; assay type: biochemical; conditions: test compound 10 nM; read-out: FGFR4 Kinase Activity Inhibitory Rate
T1 construct: purchased CARNA BIOSCIENCES; Inc. 08CBS-0716C
T1 sequence (P22455 22-802): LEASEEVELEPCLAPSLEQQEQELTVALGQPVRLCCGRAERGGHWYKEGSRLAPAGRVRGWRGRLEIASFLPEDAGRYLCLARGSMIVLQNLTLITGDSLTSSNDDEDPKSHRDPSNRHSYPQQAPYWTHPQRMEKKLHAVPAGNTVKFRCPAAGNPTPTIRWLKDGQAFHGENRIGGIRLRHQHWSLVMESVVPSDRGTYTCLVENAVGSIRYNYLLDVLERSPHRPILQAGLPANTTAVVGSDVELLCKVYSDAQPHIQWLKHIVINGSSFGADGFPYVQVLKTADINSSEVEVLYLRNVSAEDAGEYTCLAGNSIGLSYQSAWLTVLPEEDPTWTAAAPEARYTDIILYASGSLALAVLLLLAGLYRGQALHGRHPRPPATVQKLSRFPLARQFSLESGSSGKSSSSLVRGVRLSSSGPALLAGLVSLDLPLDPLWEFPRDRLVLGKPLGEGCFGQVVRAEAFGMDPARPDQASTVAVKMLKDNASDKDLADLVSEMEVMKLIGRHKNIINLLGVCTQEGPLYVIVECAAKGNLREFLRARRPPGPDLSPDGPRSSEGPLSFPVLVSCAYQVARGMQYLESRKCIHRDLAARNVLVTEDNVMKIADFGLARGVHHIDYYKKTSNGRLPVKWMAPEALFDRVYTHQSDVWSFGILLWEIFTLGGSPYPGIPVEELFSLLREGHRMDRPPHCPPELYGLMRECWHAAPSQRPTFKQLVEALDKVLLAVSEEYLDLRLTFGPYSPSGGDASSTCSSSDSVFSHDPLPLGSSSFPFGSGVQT
Protocol: The outline of the measurement method is shown below.
Into a well of a 384-well plate,
(1) 4 μL of a compound solution was added,
(2) 2 μL of an FGFR4 enzyme (3 ng/μL) diluted with a reaction buffer was added,
(4) the mixture was allowed to undergo a reaction at room temperature for 30 minutes (concentration of the test compound species during assay of 10 nM).
(5) 15 μL/well of a 20 mM EDTA solution was added thereto to stop the reaction, and then in a LabChip EZ Reader (Perkin Elmer), the amount of a phosphorylated substrate peptide produced by the kinase reaction of FGFR4 was measured.

[4] = tested on: surgically unresectable liver cancer; conditions: extension from 7.9 months; N Engl J Med. 2008; cited from earlier work

Row | Compound | Tumor growth inhibitory rate ([1]; final day 10th day) | inhibition at 0.037 µM [2] | inhibition at 0.01 µM [3] | Tumor growth inhibitory rate ([1]; final day 9th day) | survival [4]
1 | COc1cc(Nc2ncc(OCc3c(F)c(OC)cc(OC)c3F)cn2)ccc1N1CCC(N2CCN(C)CC2)CC1 [Compound A, 5-[(2,6-difluoro-3,5-dimethoxybenzyl)oxy]-N-{3-methoxy-4-[4-(4-methylpiperazin-1-yl)piperidin-1-yl]phenyl}pyrimidin-2-amine] | 80% | 53% | 78% |  | 
2 | COc1cc(OC)c(F)c(COc2cnc(Nc3ccc(N4CCN(C)CC4)cc3)nc2)c1F [Compound D, 5-[(2,6-difluoro-3,5-dimethoxybenzyl)oxy]-N-[4-(4-methylpiperazin-1-yl)phenyl]pyrimidin-2-amine] | 67% | 65% | 82% |  | 
3 | COc1cc(OC)c(F)c(COc2cnc(Nc3cc(CN4CCN(C)CC4)n(C)n3)nc2)c1F [Compound E, 5-[(2,6-difluoro-3,5-dimethoxybenzyl)oxy]-N-{1-methyl-5-[(4-methylpiperazin-1-yl)methyl]-1H-pyrazol-3-yl}pyrimidin-2-amine] |  | 11% | 31% | 44% | 
4 | CNC(=O)c1cc(Oc2ccc(NC(=O)Nc3ccc(Cl)c(C(F)(F)F)c3)cc2)ccn1 [sorafenib] |  |  |  |  | 10.7 months
